Assay results published in US6949648B2, “Condensed pyrazole derivatives, process for producing the same and use thereof” (Takeda Pharmaceutical Company Limited, priority 2000, dated 2005).

Q: With `Cc1ccc2nc3c(c(C)nn3-c3ccccn3)c(Cl)c2c1` [Example 2-32, 4-Chloro-3,6-dimethyl-1-(2-pyridinyl)-1H-pyrazolo[3,4-b]quinoline] as the molecule, how does the melting point read?
A: 158 to 160 °C

Q: For `Cc1nn(-c2ccccn2)c2ncc(C(=O)Nc3ccccc3F)c(O)c12` [Example 1-12, N-(2-Fluorophenyl)-4-hydroxy-3-methyl-1-(2-pyridinyl)-1H-pyrazolo[3,4-b]pyridine-5-carboxamide], which melting point is on record?
A: > 300 °C

Q: Which melting point does the source give for `Cc1nn(-c2cccnc2)c2[nH]c3ccccc3c(=O)c12` [Example 2-138, 3-Methyl-1-(3-pyridinyl)-1,9-dihydro-4H-pyrazolo[3,4-b]quinolin-4-one] here?
A: 282 to 283 °C

Q: Which melting point does the source give for `CCCc1c2ccccc2nc2c1c(C)nn2-c1ccccn1` [Example 2-103, 3-Methyl-4-propyl-1-(2-pyridinyl)-1H-pyrazolo[3,4-b]quinoline] here?
A: 108 to 109 °C

Q: With `CCCCc1c2ccccc2nc2c1c(C)nn2-c1ccccn1` [Example 2-104, 4-Butyl-3-methyl-1-(2-pyridinyl)-1H-pyrazolo[3,4-b]quinoline] as the molecule, how does the melting point read?
A: 102 to 103 °C

Q: With `COc1ccc(-c2nn(-c3ccccn3)c3[nH]c4ccccc4c(=O)c23)cc1` [Example 2-185, 3-(4-Methoxyphenyl)-1-(2-pyridinyl)-1,9-dihydro-4H-pyrazolo[3,4-b]quinolin-4-one] as the molecule, how does the melting point read?
A: 197 to 199 °C

Q: For `Cc1nn(-c2ccncc2)c2nc3ccccc3c(N)c12.Cl.Cl`, which melting point is on record?
A: 259 to 266 °C

Q: Which melting point does the source give for `Cc1nn(-c2cccnc2)c2nc3ccccc3c(N)c12.Cl.Cl` here?
A: 234 to 237 °C

Q: Which melting point does the source give for `Oc1ccnc2c1cnn2-c1ccccn1` [Example 1-7, 1-(2-Pyridinyl)-1H-pyrazolo[3,4-b]pyridin-4-ol] here?
A: 192 to 194 °C

Q: With `Cc1ccc2nc3c(c(C)nn3-c3ccccn3)c(N)c2c1.Cl` as the molecule, how does the melting point read?
A: 287 to 290 °C

Q: Which melting point does the source give for `Cc1nn(-c2ncccn2)c2nc3ccccc3c(Cl)c12` [Example 2-144, 4-Chloro-3-methyl-1-(2-pyrimidinyl)-1H-pyrazolo[3,4-b]quinoline] here?
A: 257 to 260 °C

Q: Which melting point does the source give for `Fc1ccc2nc3c(cnn3-c3ccccn3)c(Cl)c2c1` [Example 2-164, 4-Chloro-6-fluoro-1-(2-pyridinyl)-1H-pyrazolo[3,4-b]quinoline] here?
A: 176 to 179 °C

Q: Which melting point does the source give for `Cc1cccnc1-n1nc(C)c2c(Cl)c3c(C)cccc3nc21` [Example 2-123, 4-Chloro-3,5-dimethyl-1-(3-methyl-2-pyridinyl)-1H-pyrazolo[3,4-b]quinoline] here?
A: 176 to 178 °C

Q: With `CSc1ccc2nc3c(c(C)nn3-c3ccccn3)c(Cl)c2c1` [Example 2-49, 4-Chloro-3-methyl-6-(methylsulfanyl)-1-(2-pyridinyl)-1H-pyrazolo[3,4-b]quinoline] as the molecule, how does the melting point read?
A: 182 °C

Q: For `CCOc1cccc(-n2nc(C)c3c(Cl)c4cccc(C)c4nc32)n1` [Example 2-128, 4-Chloro-3,8-dimethyl-1-(6-ethoxy-2-pyridinyl)-1H-pyrazolo[3,4-b]quinoline], which melting point is on record?
A: 151 to 153 °C

Q: Which melting point does the source give for `CCOc1c2ccccc2nc2c1c(C)nn2-c1ccccn1` [Example 2-16, 4-Ethoxy-3-methyl-1-(2-pyridinyl)-1H-pyrazolo[3,4-b]quinoline] here?
A: 121 to 123 °C

Q: With `Cc1nn(-c2ccccn2)c2nc3c(F)cccc3c(Cl)c12` [Example 2-84, 4-Chloro-8-fluoro-3-methyl-1-(2-pyridinyl)-1H-pyrazolo[3,4-b]quinoline] as the molecule, how does the melting point read?
A: 191 °C

Q: With `Cc1nn(-c2ccccn2)c2nc3ccccc3c(NC3CC3)c12.Cl` as the molecule, how does the melting point read?
A: 208 to 211 °C

Q: For `Cc1nn(-c2ccccn2)c2ncc(C(=O)NCc3ccccc3)c(O)c12` [Example 1-9, N-Benzyl-4-hydroxy-3-methyl-1-(2-pyridinyl)-1H-pyrazolo[3,4-b]pyridine-5-carboxamide], which melting point is on record?
A: > 300 °C

Q: Which melting point does the source give for `Cc1nn(-c2ccccn2)c2nc(O)c3c(c12)CCCCC3` [Example 1-30, 1-Methyl-3-(2-pyridinyl)-3,6,7,8,9,10-hexahydrocyclohepta[d]pyrazolo[3,4-b]pyridin-5-ol] here?
A: 243 to 244 °C

Q: Which melting point does the source give for `Cc1nn(-c2ccccn2)c2ncc(C(=O)NC3CCCCC3)c(O)c12` [Example 1-8, N-Cyclohexyl-4-hydroxy-3-methyl-1-(2-pyridinyl)-1H-pyrazolo[3,4-b]pyridine-5-carboxamide] here?
A: > 300 °C

Q: With `Cc1nn(-c2ccccn2)c2nc3ccccc3c(Cl)c12` [Example 1-34, 4-Chloro-3-methyl-1-(2-pyridinyl)-1H-pyrazolo[3,4-b]quinoline] as the molecule, how does the melting point read?
A: 157 to 159 °C

Q: Which melting point does the source give for `Cc1nn(-c2ccccn2)c2ncc(C(=O)c3ccccc3)c(O)c12` [Example 1-4, [4-Hydroxy-3-methyl-1-(2-pyridinyl)-1H-pyrazolo[3,4-b]pyridin-5-yl]phenylmethanone] here?
A: 224 to 226 °C

Q: With `Cc1nn(-c2ccncc2)c2nc3cc(F)c(F)cc3c(Cl)c12` [Example 2-204, 4-Chloro-6,7-difluoro-3-methyl-1-(4-pyridinyl)-1H-pyrazolo[3,4-b]quinoline] as the molecule, how does the melting point read?
A: 226 to 228 °C

Q: With `Cc1nn(-c2ccccn2)c2[nH]c3c(c(=O)c12)CCCCC3` [Example 2-195, 3-Methyl-1-(2-pyridinyl)-5,6,7,8,9,10-hexahydrocyclohepta[b]pyrazolo[4,3-e]pyridin-4(1H)-one] as the molecule, how does the melting point read?
A: 184 to 185 °C

Q: For `COc1c2ccccc2nc2c1c(C)nn2Cc1ccccn1` [Example 2-190, 4-Methoxy-3-methyl-1-(2-pyridinylmethyl)-1H-pyrazolo[3,4-b]quinoline], which melting point is on record?
A: 111 to 113 °C

Q: With `COC(=O)Cc1nn(-c2ccccn2)c2nc3ccccc3c(Cl)c12` [Example 2-175, Methyl 2-[4-chloro-1-(2-pyridinyl)-1H-pyrazolo[3,4-b]quinolin-3-yl]acetate] as the molecule, how does the melting point read?
A: 152 to 153 °C

Q: For `Cc1nn(-c2ccccn2)c2nc3ccccc3c(OC3CCCCC3)c12` [Example 2-22, 4-Cyclohexyloxy-3-methyl-1-(2-pyridinyl)-1H-pyrazolo[3,4-b]quinoline], which melting point is on record?
A: 88 to 91 °C

Q: Which melting point does the source give for `CCCn1c2cc(F)c(F)cc2c(=O)c2c(C)nn(-c3ccccn3)c21` [Example 2-93, 6,7-Difluoro-3-methyl-9-propyl-1-(2-pyridinyl)-1,9-dihydro-4H-pyrazolo[3,4-b]quinolin-4-one] here?
A: 198 to 200 °C

Q: With `COc1cccc(-n2nc(C)c3c(N)c4cccc(C)c4nc32)n1` [Example 2-127, 3,8-Dimethyl-1-(6-methoxy-2-pyridinyl)-1H-pyrazolo[3,4-b]quinolin-4-ylamine] as the molecule, how does the melting point read?
A: 134 to 137 °C

Q: Which melting point does the source give for `Cc1nn(-c2ccccn2)c2[nH]c3ccc(S(C)(=O)=O)cc3c(=O)c12` [Example 2-52, 3-Methyl-6-(methylsulfonyl)-1-(2-pyridinyl)-1,9-dihydro-4H-pyrazolo[3,4-b]quinolin-4-one] here?
A: > 300 °C

Q: Which melting point does the source give for `Cc1nn(-c2ccccn2)c2nc3ccccc3c(C(N)=O)c12` [Example 2-108, 3-Methyl-1-(2-pyridinyl)-1H-pyrazolo[3,4-b]quinoline-4-carboxamide] here?
A: > 300 °C

Q: For `Cc1cc(O)nc2c1c(C)nn2-c1ccccn1` [Example 1-23, 3,4-Dimethyl-1-(2-pyridinyl)-1H-pyrazolo[3,4-b]pyridin-6-ol], which melting point is on record?
A: 254 to 255 °C

Q: Which melting point does the source give for `Cc1nn(-c2ccccn2)c2[nH]c3cc([N+](=O)[O-])ccc3c(=O)c12` [Example 2-58, 3-Methyl-7-nitro-1-(2-pyridinyl)-1,9-dihydro-4H-pyrazolo[3,4-b]quinolin-4-one] here?
A: > 300 °C

Q: For `Cc1nn(-c2ccccn2)c2nc3ccc(Br)cc3c(Cl)c12` [Example 2-86, 6-Bromo-4-chloro-3-methyl-1-(2-pyridinyl)-1H-pyrazolo[3,4-b]quinoline], which melting point is on record?
A: 234 to 235 °C

Q: With `Cc1nn(-c2ccc(Cl)cn2)c2[nH]c3ccccc3c(=O)c12` [Example 2-114, 1-(5-Chloro-2-pyridinyl)-3-methyl-1,9-dihydro-4H-pyrazolo[3,4-b]quinolin-4-one] as the molecule, how does the melting point read?
A: 262 to 263 °C

Q: For `Cc1cccc(-n2nc(C)c3c(=O)c4ccccc4[nH]c32)n1` [Example 2-208, 3-Methyl-1-(6-methyl-2-pyridinyl)-1,9-dihydro-4H-pyrazolo[3,4-b]quinolin-4-one], which melting point is on record?
A: 252 °C

Q: With `Cc1nn(-c2ccccn2)c2[nH]c3c(Cl)cc(Cl)cc3c(=O)c12` [Example 2-77, 6,8-Dichloro-3-methyl-1-(2-pyridinyl)-1,9-dihydro-4H-pyrazolo[3,4-b]quinolin-4-one] as the molecule, how does the melting point read?
A: 288 to 289 °C

Q: For `CCOc1cccc(-n2nc(C)c3c(N)c4cccc(C)c4nc32)n1` [Example 2-129, 3,8-Dimethyl-1-(6-ethoxy-2-pyridinyl)-1H-pyrazolo[3,4-b]quinolin-4-ylamine], which melting point is on record?
A: 184 to 187 °C

Q: With `Cc1nn(-c2ccccn2)c2[nH]c3ccc([S+](C)[O-])cc3c(=O)c12` (stereo not shown) [Example 2-51, 3-Methyl-6-(methylsulfinyl)-1-(2-pyridinyl)-1,9-dihydro-4H-pyrazolo[3,4-b]quinolin-4-one] as the molecule, how does the melting point read?
A: 268 to 269 °C

Q: Which melting point does the source give for `O=C(O)c1nn(-c2ccccn2)c2[nH]c3ccccc3c(=O)c12` [Example 2-181, 4-Oxo-1-(2-pyridinyl)-4,9-dihydro-1H-pyrazolo[3,4-b]quinoline-3-carboxylic acid] here?
A: 306 to 309 °C

Q: Which melting point does the source give for `CCOc1cccc(-n2nc(C)c3c(Cl)c4c(C)cccc4nc32)n1` [Example 2-121, 4-Chloro-3,5-dimethyl-1-(6-ethoxy-2-pyridinyl)-1H-pyrazolo[3,4-b]quinoline] here?
A: 146 to 148 °C

Q: With `Cc1nn(-c2ccncc2)c2[nH]c3cc(F)c(F)cc3c(=O)c12.Cl.Cl` as the molecule, how does the melting point read?
A: 237 to 240 °C

Q: For `CCc1nn(-c2ccccn2)c2nc3ccccc3c(N)c12.Cl`, which melting point is on record?
A: 249 to 252 °C

Q: Which melting point does the source give for `COC(=O)Cc1nn(-c2ccccn2)c2[nH]c3ccccc3c(=O)c12` [Example 2-176, Methyl 2-[4-oxo-1-(2-pyridinyl)-4,9-dihydro-1H-pyrazolo[3,4-b]quinolin-3-yl]acetate] here?
A: 240 to 241 °C

Q: For `Cc1nn(-c2ccccn2)c2[nH]c3cc(F)c(F)cc3c(=O)c12.O` (hydrate or solvate) [Example 2-92, 6,7-Difluoro-3-methyl-1-(2-pyridinyl)-1,9-dihydro-4H-pyrazolo[3,4-b]quinolin-4-one monohydrate], which melting point is on record?
A: 273 to 275 °C
